# Measured values from patent publication US20220185793A1, “COMPOUNDS FOR THE TREATMENT OF ONCOVIRUS INDUCED CANCER AND METHODS OF USE THEREOF” (Cellestia Biotech AG, priority 2019, published 2022).
# Legend:
# [1] = tested on: BMI1 (EBV target gene); assay: EBV target gene downregulation (qPCR) in HG-3 cells: BMI1; type: cell-based, human; conditions: 48 hours; for potency in downregulating EBV pathway (BMI1) compared with 6-(4-tert-butylphenoxy)pyridin-3-amine (in words): 10 μM, qRT-PCR, FIG. 4; for inhibition at 10 µM: Homo sapiens, mRNA by qPCR, Table 5
# Protocol: EBV positive human B HG-3 cells were treated with 10 μM of the mentioned compounds for 48 hours. Following treatment, total RNA was extracted and mRNA expression analysed by qRT-PCR.
# (§1) One million human EBV positive lymphoma cell lines HG3 and LCL070903 (Rosén et al., 2012) were cultured in RPMI1640 media supplemented with 10% FCS. For RNA expression analysis cells were treated with compounds at 10 μM concentration and for proliferation assay cells were treated at a concentration range of 0.01-100 μM. Following treatment cells were harvested and washed with 1× PBS. Total RNA was extracted as described below.
# (§2) Total RNA was extracted from cells using TRIzol® extraction kit (Invitrogen). Briefly, 1×10^6 cells were washed with ice-cold 1× PBS and lysed in 1 ml of TRIzol® solution for 5 minutes at room temperature to dissociate nucleoprotein complexes. Lysed cells were then treated with 200 μl of chloroform and shaked vigorously for 15-30 seconds and incubated at room temperature for 2-3 minutes. The samples were centrifuged at 14000 rpm using Eppendorf table top centrifuge for 10 minutes at 4° C. Following centrifugation, upper aqueous phase was transferred to new eppendorf tubes. To precipitate total RNA 500 μl of […] was added to the separated aqueous phase and incubated at room temperature for 10 minutes. A RNA pellet was obtained by centrifuging the samples at 4° C. for 10 minutes. RNA pellet obtained was washed with 1 ml ice cold 75% ethanol and spun down at 14000 rpm at 4° C. RNA pellet was dried off of excess of ethanol and resuspended in 40 IA DPEC water.
# (§3) Total RNA extracted from the cell was used to synthesize cDNA by reverse transcription reaction. Reverse transcription was performed according to one of the two following protocols.
# (§4) In first protocol, SuperScript™ RT (Invitrogen) was used for reverse transcription reaction. RNA concentration was measured using NanoDrop®ND-1000 spectrophotometer (Witec AG) and 500 ng of total RNA was mixed with a 10 mM mix of dNTPs and 100 ng of random primers. The reaction mix was incubated at 65° C. for 5 minutes and quickly incubated on ice for 1 minute. Following incubation on ice, 5× first strand buffer and 0.1M DTT were added and mix was incubated for 2 minutes at 25° C. To start the reverse transcription reaction, 200U of SuperScrip™ II RT was added to the reaction mix and incubated at 42° C. for 50 minutes. The reaction was stopped by incubating the reaction mix at 75° C. for 15 minutes.
# (§5) In second protocol, reverse transcription was performed using PrimeScript RT Master Mix (Takara). RNA concentration was measured using NanoDrop®ND-1000 spectrophotometer (Witec AG) and 1 μg of total RNA was mixed with 4 μL 5X PrimeScript RT Master Mix in a total reaction volume of 20 μL. The reaction mix was incubated at 37° C. for 15 minutes followed by heat inactivation at 85° C. for 5 seconds.
# (§6) QRT-PCR was carried out using 7900 HT Fast Real-Time PCR system (Applied Biosystems) or QuantStudio 3 system (ThermoFisher). Briefly, 12.5 ng of template cDNA was used with a primer concentration of 0.5 μM each and lx SYBR Green dye in a final volume of 10 μL in a 96 well or 384 well plate format.
# (§7) Upon infection of human cells, EBV is known to induce cancerous transformation of cells via upregulation of host as well as viral genes (e.g LMP1, EBNA2, BATF1, BMI1 and CD21). To determine the ability of compounds to downregulate EBV driven gene expression, HG-3 and LCL070903 cells were treated with selected compounds and percentage inhibition of EBV target genes was determined by quantitative PCR. As shown in Table 5 and Table 6, compounds down regulate EBV target genes such as BMI1 in HG-3 and LCL070903 cells, respectively (FIGS. 3 and 4).
# [2] = tested on: BMI1 (EBV target gene); assay: EBV target gene downregulation (qPCR) in LCL070903 cells: BMI1; type: cell-based, human; conditions: 48 hours; for potency in downregulating EBV pathway (BMI1) compared with 6-(4-tert-butylphenoxy)pyridin-3-amine (in words): 10 μM, qRT-PCR, FIG. 3; for inhibition at 10 µM: Homo sapiens, mRNA by qPCR, Table 6
# Protocol: EBV positive human B LCL070903 cells were treated with 10 μM of the mentioned compounds for 48 hours. Following treatment, total RNA was extracted and mRNA expression analysed by qRT-PCR.
# as §1, §2, §3, §4, §5, §6, §7
# [3] = tested on: EBV positive human lymphoma HG-3 cells; assay: Alamar blue proliferation assay in HG-3 cells; type: cell-based; conditions: 72 hours; for anti-proliferative effect on HG-3 cells (in words): Alamar blue, FIG. 1 and Table 1; for IC50: Homo sapiens, concentration range 0.01-10 μM, Alamar blue assay, read-out: Anti-proliferative IC50 values
# Protocol: (§8) One million human EBV positive lymphoma cell lines HG3 and LCL070903 (Rosén et al., 2012) were cultured in RPMI1640 media supplemented with 10% FCS. […] Following treatment cells were harvested and washed with 1× PBS. Total RNA was extracted as described below.
# (§9) Alamarblue® and PrestoBlue proliferation assays were performed to determine the growth kinetics of EBV inhibitor treated cells. Alamar blue® and PrestoBlue consists of a cell permeable substrate resazurin. In metabolically active and proliferating cells, resazurin is converted to resorufin due to an intrinsic reducing power of live cells and produces a red fluorescence. Therefore production of resorufin serves as an indicator of the viability of the cell population.
# (§10) Proliferation assays were performed by seeding 5000 cells/well in a 96 well plate. […] Each concentration was tested in 4 replicates. To determine the growth kinetics, 10 μl of Alamar blue® or PrestoBlue (Invitrogen) was added to each well and incubated for 4 hours. Readout was taken using Tecan F500 (Tecan) multiplate reader or Varioskan LUX (ThermoFisher) multiplate reader.
# In order to determine anti-cancer activity of compounds in oncoviral driven cells, an EBV infected human Chronic Lymphocytic Leukemia cell line HG-3 was used (Rosen et al., 2012). In brief, HG-3 cells were plated in a 96 well plate and treated with an increasing concentration of compounds.
# [4] = tested on: EBV positive human B HG-3 cells; assay: PrestoBlue proliferation assay in HG-3 cells; type: cell-based; conditions: 72 hours; for anti-proliferative effect on HG-3 cells (in words): PrestoBlue, FIG. 2 and Table 4; for IC50: Homo sapiens, concentration range 0.03-100 μM, PrestoBlue assay, read-out: Anti-proliferative IC50 values (μM) in HG-3 cells
# Protocol: as §8, §9, §10
# In brief, HG-3 cells were plated in a 96 well plate and treated with an increasing concentration of compounds.
# [5] = tested on: EBNA2; assay: EBV target gene downregulation (qPCR) in HG-3 cells: EBNA2; type: cell-based; conditions: Homo sapiens, mRNA by qPCR, Table 5
# Protocol: as §1, §2, §3, §4, §5, §6
# (§11) To determine the ability of compounds to downregulate EBV driven gene expression, HG-3 cells were treated with selected compounds and percentage inhibition of EBV target genes was determined by quantitative PCR. […] To further determine the anti-oncoviral specificity of compounds, these compounds were tested for their ability to downregulate a NOTCH target gene HES1 in a NOTCH1 positive (EBV negative) human leukemic cell line RPMI8402.
# as §7
# [6] = tested on: EBNA2; assay: EBV target gene downregulation (qPCR) in LCL070903 cells: EBNA2; type: cell-based; conditions: Homo sapiens, mRNA by qPCR, Table 6
# Protocol: as §1, §2, §3, §4, §5, §6, §7
# [7] = tested on: NOTCH target gene HES1; assay: NOTCH target gene HES1 downregulation in RPMI 8402 cells; type: cell-based, human; design: Percentage inhibition of NOTCH target gene HES1: concentration or dose not given beside the values; conditions: RPMI 8402 cells (NOTCH1 positive, EBV negative)
# Protocol: as §2, §3, §6, §11
IC50 [3] [µM],SMILES,potency in downregulating EBV pathway (BMI1) compared with 6-(4-tert-butylphenoxy)pyridin-3-amine (in words) [1],inhibition at 10 µM [1] [%],potency in downregulating EBV pathway (BMI1) compared with 6-(4-tert-butylphenoxy)pyridin-3-amine (in words) [2],inhibition at 10 µM [2] [%],anti-proliferative effect on HG-3 cells (in words) [3],IC50 [4] [µM],further results
,"COC(c1ccc(NCc2cccnc2)cc1)c1ccc(-c2ccc(F)cc2)cc1 (stereo not drawn) [Example 31, 4-((4′-Fluoro-[1,1′-biphenyl]-4-yl)(methoxy)methyl)-N-(pyridin-3-ylmethyl)aniline]",enhanced potency,24,enhanced potency,48,,,
6.3,"CC(C)(C)c1ccc(Oc2ccc(NCc3nnc(N)o3)cn2)cc1 [Example 9, 5-(((6-(4-(tert-Butyl)phenoxy)pyridin-3-yl)amino)methyl)-1,3,4-oxadiazol-2-amine]",,,,,demonstrate anti-proliferative effect,,
,"Cc1cc(Oc2ccc(-c3ccccc3)cc2)ncc1NCc1cccnc1 [Example 22, 6-([1,1′-Biphenyl]-4-yloxy)-4-methyl-N-(pyridin-3-ylmethyl)pyridin-3-amine]",enhanced potency,30,enhanced potency,18,,1.5,anti-proliferative effect on HG-3 cells (in words) [4]: demonstrate anti-proliferative effect
,"Fc1cc(NCc2cccnc2)ccc1Oc1ccc(-c2cccnc2)cc1 [Example 26, 3-Fluoro-4-(4-(pyridin-3-yl)phenoxy)-N-(pyridin-3-ylmethyl)aniline]",enhanced potency,11,enhanced potency,53,,,
,"Fc1ccc(-c2ccc(Oc3ccc(NCc4cccnc4)cn3)cc2)cc1 [Example 24, 6-((4′-Fluoro-[1,1′-biphenyl]-4-yl)oxy)-N-(pyridin-3-ylmethyl)pyridin-3-amine]",enhanced potency,15,enhanced potency,61,,,inhibition at 10 µM [5]: 7%
,"Fc1cc(NCc2cccnc2)ccc1Oc1ccc(-c2ccccn2)cc1 [Example 25, 3-Fluoro-4-(4-(pyridin-2-yl)phenoxy)-N-(pyridin-3-ylmethyl)aniline]",enhanced potency,19,enhanced potency,46,,6.7,anti-proliferative effect on HG-3 cells (in words) [4]: demonstrate anti-proliferative effect; inhibition at 10 µM [5]: 1%
7.9,"CC(C)(C)c1ccc(Oc2ccc(NCc3nnco3)cn2)cc1 [Example 8, N-((1,3,4-Oxadiazol-2-yl)methyl)-6-(4-(tert-butyl)phenoxy)pyridin-3-amine]",,,,,demonstrate anti-proliferative effect,,
,"CC(C)(C)c1ccc(Oc2ccc(NCc3cccnc3)cc2F)cc1 [Example 18, 4-(4-(tert-Butyl)phenoxy)-3-fluoro-N-(pyridin-3-ylmethyl)aniline]",enhanced potency,10,enhanced potency,24,,,
,"c1ccc(-c2ccc(Oc3ccc(NCc4cccnc4)cn3)cc2)cc1 [Example 20, 6-([1,1r-Biphenyl]-4-yloxy)-N-(pyridin-3-ylmethyl)pyridin-3-amine]",,35,enhanced potency,44,,0.3,anti-proliferative effect on HG-3 cells (in words) [4]: demonstrate anti-proliferative effect; inhibition at 10 µM [6]: 27%
> 10,"CC(C)(C)c1ccc(Oc2ccc(N)cn2)cc1 [6-(4-tert-Butylphenoxy)pyridin-3-amine, reference compound]",,< 0,,< 0,,> 10,Percentage inhibition of NOTCH target gene HES1 [7]: 80%; downregulation of NOTCH target gene HES1 (in words) [7]: effectively downregulates HES1
7.1,"CC(C)(C)c1ccc(Oc2ccc(NCc3nn[nH]n3)cn2)cc1 [Example 7, N-((2H-Tetrazol-5-yl)methyl)-6-(4-(tert-butyl)phenoxy)pyridin-3-amine]",,,,,demonstrate anti-proliferative effect,,
,"Fc1ccc(-c2ccc(Cc3ccc(NCc4cccnc4)cc3)cc2)cc1 [Example 32, 4-((4′-Fluoro-[1,1′-biphenyl]-4-yl)methyl)-N-(pyridin-3-ylmethyl)aniline]",enhanced potency,13,enhanced potency,45,,,
8,"CC(C)(C)c1ccc(Oc2ccc(NCC#N)cn2)cc1 [Example 6, 2-((6-(4-(tert-Butyl)phenoxy)pyridin-3-yl)amino)acetonitrile]",,,,,demonstrate anti-proliferative effect,,
